“And” between values parts separate entries of the source, which are not always exact repeats. Identical values can stand only once.
Tested on: TRZAX Triticum aestivum (Soft wheat)
Experiment: Ipfencarbazone biostimulant effect, early post emergence foliar application, greenhouse pots, plant height: wheat
Assay type: in vivo
Details: for HEIGHT, percent of untreated check (APoC) / HEIGHT, treatment mean: TRZAX BRS327
From the text: The original objective of this Example was to evaluate the herbicidal effect of ipfencarbazone when applied as a post emergent treatment to a range of selected crops and weeds. Unexpectedly, crop plant growth stimulation was observed. The actual species of weeds and crops are listed in the summary data tabulated below and in FIGS. 1-13. By convention each plant species has a Bayer code (5-letter name) with the scientific name for the plant referenced in FIGS. 1-13. In each Figure, each tray contains the same configuration of weeds and/or crops. In each Figure there is one replication of each treatment (six treatments in total). The top three photographs in each Figure show the Bayer Codes and bottom three photographs are aligned with the top three facilitating viewing of the same plant species. Throughout the Examples various abbreviations as conventional shorthand notation and will be appreciated by those skilled in the art. Some exemplary abbreviations include, “CV”=Co-efficient of Variation,” “LSD”=Least Significant Difference” (G/L (gram per L) AND GA/L (gram of active ingredient per L); “SC”=suspension concentrate formulation. The diluent in all treatments was water. By convention factors that are identical in all treatments (e.g. diluent and surfactant) are not listed in each treatment.
Methods: The indicated size pots (see Tables below) are filled with a specific soil, the soil properties being indicated below. The referenced crops and weeds are planted by hand in each pot. […] The experiments include six treatments each replicated three times on each crop/weed species. At a specific time after emergence each crop and weed species was treated with ipfencarbazone plus a non-ionic surfactant (NIS). In the present Example, the surfactant employed was ENERGIC™ (non-ionic surfactant). The application timing is indicated in each of the Tables (1 or 2 leaf stage) below. Ipfencarbazone plus surfactant was diluted in water and applied at a rate equivalent to about 250 L/ha. Ipfencarbazone was applied using a track sprayer. After treatment, the pots were randomized in a greenhouse. At each assessment (indicated by “days after treatment” or DAT) the height of each plant was measured. The letters next to each mean indicate the level of statistical significance.
Replications: 3, Untreated treatments: 1, Design: Randomized Complete Block (RCB), Treatment units: Treated ‘Plot’ experimental unit size, Dry Form. Unit: %, Treated ‘Plot’ experimental unit size Width: 1 meter, Treated ‘Plot’ experimental unit size Length: 1.4 meters, Application volume: 250 L/ha, Mix size: 0.15 liters, […]

[1] = Soft wheat BRS327, 15 DA-A, 62.5 g ai/ha + Energic NIS 0.2 % v/v
[2] = Soft wheat BRS327, 15 DA-A, 250 g ai/ha + Energic NIS 0.2 % v/v
[3] = Soft wheat BRS327, 15 DA-A, 1000 g ai/ha + Energic NIS 0.2 % v/v
[4] = Soft wheat BRS327, 28 DA-A, 62.5 g ai/ha + Energic NIS 0.2 % v/v
[5] = Soft wheat BRS327, 28 DA-A, 125 g ai/ha + Energic NIS 0.2 % v/v
[6] = Soft wheat BRS327, 28 DA-A, 250 g ai/ha + Energic NIS 0.2 % v/v
[7] = Soft wheat Iguaçú, 15 DA-A, 62.5 g ai/ha + Energic NIS 0.2 % v/v
[8] = Soft wheat Iguaçú, 15 DA-A, 250 g ai/ha + Energic NIS 0.2 % v/v
[9] = Soft wheat Iguaçú, 15 DA-A, 500 g ai/ha + Energic NIS 0.2 % v/v
[10] = Soft wheat Iguaçú, 15 DA-A, 1000 g ai/ha + Energic NIS 0.2 % v/v
[11] = Soft wheat Iguaçú, 28 DA-A, 62.5 g ai/ha + Energic NIS 0.2 % v/v
[12] = Soft wheat Iguaçú, 28 DA-A, 125 g ai/ha + Energic NIS 0.2 % v/v
[13] = Soft wheat Iguaçú, 28 DA-A, 250 g ai/ha + Energic NIS 0.2 % v/v
[14] = Soft wheat Iguaçú, 28 DA-A, 500 g ai/ha + Energic NIS 0.2 % v/v
[15] = Soft wheat Itaipú, 15 DA-A, 125 g ai/ha + Energic NIS 0.2 % v/v
[16] = Soft wheat Itaipú, 15 DA-A, 250 g ai/ha + Energic NIS 0.2 % v/v
[17] = Soft wheat Itaipú, 15 DA-A, 1000 g ai/ha + Energic NIS 0.2 % v/v
[18] = Soft wheat Itaipú, 28 DA-A, 125 g ai/ha + Energic NIS 0.2 % v/v
[19] = Soft wheat Itaipú, 28 DA-A, 250 g ai/ha + Energic NIS 0.2 % v/v

Compound: CC(C)N(C(=O)n1cnn(-c2ccc(Cl)cc2Cl)c1=O)c1ccc(F)cc1F [ARY-0572-001, ipfencarbazone]
- Plant HEIGHT, Mean [1]: 27.2 cm
- Plant HEIGHT, single plots [1]: 25.0 cm and 30.8 cm and 25.7 cm
- Plant HEIGHT, Mean (Soft wheat BRS327, 15 DA-A, 125 g ai/ha + Energic NIS 0.2 % v/v): 27.6 cm
- Plant HEIGHT, Mean [2]: 32.0 cm
- Plant HEIGHT, single plots [2]: 31.0 cm and 32.3 cm and 32.7 cm
- Plant HEIGHT, Mean (Soft wheat BRS327, 15 DA-A, 500 g ai/ha + Energic NIS 0.2 % v/v): 24.4 cm
- Plant HEIGHT, Mean [3]: 17.3 cm
- Plant HEIGHT, single plots [3]: 23.3 cm and 11.7 cm and 17.0 cm
- Plant HEIGHT, Mean [4]: 33.0 cm
- Plant HEIGHT, single plots [4]: 27.7 cm and 43.3 cm and 28.0 cm
- Plant HEIGHT, Mean [5]: 35.0 cm
- Plant HEIGHT, single plots [5]: 49.0 cm and 24.7 cm and 31.3 cm
- Plant HEIGHT, Mean [6]: 45.6 cm
- Plant HEIGHT, single plots [6]: 45.7 cm and 46.0 cm and 45.0 cm
- Plant HEIGHT, Mean (Soft wheat BRS327, 28 DA-A, 500 g ai/ha + Energic NIS 0.2 % v/v): 31.6 cm
- Plant HEIGHT, Mean (Soft wheat BRS327, 28 DA-A, 1000 g ai/ha + Energic NIS 0.2 % v/v): 28.2 cm
- Plant HEIGHT, Mean [7]: 24.6 cm
- Plant HEIGHT, single plots [7]: 20.2 cm and 28.0 cm and 25.7 cm
- Plant HEIGHT, Mean (Soft wheat Iguaçú, 15 DA-A, 125 g ai/ha + Energic NIS 0.2 % v/v): 26.1 cm
- Plant HEIGHT, Mean [8]: 29.9 cm
- Plant HEIGHT, single plots [8]: 28.3 cm and 30.7 cm and 30.8 cm
- Plant HEIGHT, Mean [9]: 23.8 cm
- Plant HEIGHT, single plots [9]: 30.3 cm and 18.7 cm and 22.3 cm
- Plant HEIGHT, Mean [10]: 16.3 cm
- Plant HEIGHT, single plots [10]: 22.3 cm and 14.0 cm and 12.7 cm
- Plant HEIGHT, Mean [11]: 29.2 cm
- Plant HEIGHT, single plots [11]: 24.0 cm and 36.3 cm and 27.3 cm
- Plant HEIGHT, Mean [12]: 30.1 cm
- Plant HEIGHT, single plots [12]: 39.7 cm and 20.7 cm and 30.0 cm
- Plant HEIGHT, Mean [13]: 43.3 cm
- Plant HEIGHT, single plots [13]: 39.7 cm and 50.3 cm and 40.0 cm
- Plant HEIGHT, Mean [14]: 36.8 cm
- Plant HEIGHT, single plots [14]: 47.0 cm and 27.7 cm and 35.7 cm
- Plant HEIGHT, Mean (Soft wheat Iguaçú, 28 DA-A, 1000 g ai/ha + Energic NIS 0.2 % v/v): 18.7 cm
- Plant HEIGHT, Mean (Soft wheat Itaipú, 15 DA-A, 62.5 g ai/ha + Energic NIS 0.2 % v/v): 23.8 cm
- Plant HEIGHT, Mean [15]: 25.5 cm
- Plant HEIGHT, single plots [15]: 33.3 cm and 19.8 cm and 23.3 cm
- Plant HEIGHT, Mean [16]: 31.4 cm
- Plant HEIGHT, single plots [16]: 30.7 cm and 31.3 cm and 32.3 cm
- Plant HEIGHT, Mean (Soft wheat Itaipú, 15 DA-A, 500 g ai/ha + Energic NIS 0.2 % v/v): 22.2 cm
- Plant HEIGHT, Mean [17]: 15.7 cm
- Plant HEIGHT, single plots [17]: 22.0 cm and 13.0 cm and 12.0 cm
- Plant HEIGHT, Mean (Soft wheat Itaipú, 28 DA-A, 62.5 g ai/ha + Energic NIS 0.2 % v/v): 37.1 cm
- Plant HEIGHT, Mean [18]: 32.3 cm
- Plant HEIGHT, single plots [18]: 45.0 cm and 23.3 cm and 28.7 cm
- Plant HEIGHT, Mean [19]: 47.8 cm
- Plant HEIGHT, single plots [19]: 45.0 cm and 46.7 cm and 51.7 cm
- Plant HEIGHT, Mean (Soft wheat Itaipú, 28 DA-A, 500 g ai/ha + Energic NIS 0.2 % v/v): 24.0 cm
- Plant HEIGHT, Mean (Soft wheat Itaipú, 28 DA-A, 1000 g ai/ha + Energic NIS 0.2 % v/v): 18.4 cm
- HEIGHT, percent of untreated check (APoC) (62.5 g ai/ha, 15 DA-A): (145.5%)
- HEIGHT, treatment mean (62.5 g ai/ha, 15 DA-A): 27.2a cm
- HEIGHT, percent of untreated check (APoC) (62.5 g ai/ha, 28 DA-A): (147.8%)
- HEIGHT, treatment mean (62.5 g ai/ha, 28 DA-A): 33.0 a cm
- HEIGHT, percent of untreated check (APoC) (125 g ai/ha, 15 DA-A): (147.6%)

— US20170318812A1, “Plant and Crop Growth Regulating/Biostimulant Formulations and Methods of Use” (Arysta Lifescience North America, LLC, priority 2014, published 2017)
